Reference: PMC6902473 (Clinical Epigenetics, 2019)
Values joined by “and” are separate entries in the source; they are usually repeats but may differ in a detail not shown here. Equal entries are not always repeated.

Assays:
[1] = Phase I/II intra-patient dose escalation trial: safety (DLT, individual MTD, SDR, adverse events CTCAE v4.0)
Method: The study design was a single-arm, multi-center phase I/II clinical trial with two phases: Phase I was an intra-patient dose (de)escalation period until an individual maximum tolerable dose (MTD) was reached. […] A DLT was defined as grade 3 or 4 toxicity according to a selection of Common Toxicity Criteria for Adverse Events (CTCAE) (V4.0) and judged by the investigator as definitely, probably, or possibly related to the study drug. The starting dose was 180 mg/m^2/day and the minimum dose was 30 mg/m^2/day. A dosing nomogram was used to minimize interpatient dosing variability.
De-escalation was done in steps of 50 mg/m^2/day until a minimal dose of 30 mg/m^2/day was reached. […] Upon reaching her or his individual MTD, a patient seamlessly entered phase II of the protocol.
(§1) During phase II, disease assessments were performed every 3 months, starting 3 months after reaching individual MTD. If treatment was discontinued for any reason during phase II, treatment was prolonged thereafter to provide a minimal treatment window of 3 months before measuring response. Patients without progressive disease continued the therapy at their individual MTD until disease progression (but no longer than 9 months). In case of clinical benefit, treatment could be continued on an individual basis at the discretion of the investigator. Toxicities were graded according CTCAE V4.0.
(§2) The primary end point was to determine a safe dose recommendation (SDR), defined as the highest dose with a DLT in no more than 1/50 patients.
The DLT associated with the starting dose was to be continuously monitored using a Bayesian criterion with a non-informative prior and a binomial-beta model for the DLT rate r. […] This decision process was repeated, i.e., it was applied to the lowered starting dose in an analogous way.
All adverse events were summarized, using MedDRA preferred terms.

[2] = system: relapsed or therapy-refractory solid tumors (including brain tumors), lymphoma, or leukemia; experiment: Phase II tumor response and survival at individual MTD (RECIST version 1.1)
Method: as §1, §2
Pretreatment evaluations included medical history, physical examination, ECG, ß-hCG in urine pregnancy test (if applicable), and complete blood count including differential, serum electrolytes liver, and renal function tests. Tumor markers were determined if appropriate. During phase I and the first 3 months of phase II (until the first response evaluation), history, physical examination, and laboratory studies were obtained weekly. If patients continued treatment beyond the first response evaluation in phase II (i.e., not showing PD), evaluations were performed every 2 weeks. After end of treatment, patients were followed-up for 3 months according the same scheme. In addition, an ECG was performed during phase I on day 8, 15, and at the time of reaching the individual MTD. Disease evaluations were performed at baseline, after 3 months of treatment at individual MTD, and every 3 months thereafter, using MRI (solid tumors, brain tumors, lymphomas), MIBG scan (neuroblastoma), or bone marrow evaluation (leukemia). Responses were reported using RECIST version 1.1 (solid tumors, brain tumors, lymphomas) [42–44] or the International Neuroblastoma Response Criteria (INRC) (neuroblastoma) [45], by central review. Bone marrow aspirates were evaluated in a central lab together with peripheral blood differential blood counts.
Standard methods for survival analysis (e.g., Kaplan-Meier estimates of the survival curves, Greenwood’s formula for estimating the standard error of event rates) were used for the analysis of time-to-event endpoints. […] Efficacy analysis included all patients who had completed the escalation/de-escalation scheme and started with the individual therapy at the MTD.
The AUCs were calculated by mixed log-linear model. Following exploratory aims to predict progression free survival (PFS) and overall survival (OS), an optimal cutpoint in the continuous PK parameter distributions of Cmax and AUC/D was determined by the minimum p value approach based on the log-rank test [51]. Graphical and statistical analysis was performed with Graphpad Prism 7.0 (Graphpad Software Inc., La Jolla, CA, USA), Kinetica 5.0 (Thermo Fisher Scientific, Waltham, MA, USA), and the R software/environment version 3.5.1 (R Foundation for Statistical Computing, Vienna, Austria).

[3] = maximum Grade 3 CTCAE v4.0, n = 50
[4] = single patient: High grade glioma, highest methylation score for glioblastoma IDH wt, (NC) not censored
[5] = single patient: High grade glioma, methylation profile pilocytic astrocytoma, BRAF (p.V600E), (C) censored
[6] = single patient: Medulloblastoma, (C) censored
[7] = single patient: SETTLE tumor, (C) censored

In the case of `O=C(CCCCCCC(=O)Nc1ccccc1)NO` [vorinostat], the “median individual MTD” value ([1]; Safety population (n = 50)) is reported as 280 mg/m^2/day, the “patients who reached the maximum individual MTD of 580 mg/m^2/day” value ([1]; Safety population (n = 50)) is reported as 4/50 and the treatment-related deaths ([1]; Safety population (n = 50)) is reported as “No treatment-related deaths”. The “safe dose recommendation (SDR)” value ([1]; highest dose with a DLT in no more than 1/50 patients, starting dose for individual dose escalation) was 130 mg/m^2/day, the “Patients with treatment related AE: Anemia” value [1, 3] was 2 (4.0) Patients (%) and the “Patients with treatment related AE: Decreased appetite” value [1, 3] was 2 (4.0) Patients (%). For the same compound, the “Patients with treatment related AE: Diarrhea” value [1, 3] was 1 (2.0) Patients (%), the “Patients with treatment related AE: Fatigue” value [1, 3] was 7 (14.0) Patients (%) and the “Patients with treatment related AE: Headache” value [1, 3] was 1 (2.0) Patients (%). For the same compound, the “Patients with treatment related AE: Hypermagnesemia” value [1, 3] was 3 (6.0) Patients (%), the “Patients with treatment related AE: Nausea” value [1, 3] was 4 (8.0) Patients (%) and the “Patients with treatment related AE: Platelet count decreased” value [1, 3] was 15 Patients (%) and 15 (30.0) Patients (%). For the same compound, the “Patients with treatment related AE: Vomiting” value [1, 3] was 2 (4.0) Patients (%), the “Patients with treatment related AE: Weight decreased” value [1, 3] was 3 (6.0) Patients (%) and the “Patients with treatment related AE: White blood cell decreased” value [1, 3] was 8 (16.0) Patients (%). The “Patients with treatment related AE: Platelet count decreased” value ([1]; maximum Grade 4 CTCAE v4.0, n = 50) was 16 Patients (%) and 16 (32.0) Patients (%), the “maximum individual MTD” value ([1]; maximum dose of the escalation scheme) was 580 mg/m^2/day and the MTD ([1]; single patient: High grade glioma, highest methylation score for glioblastoma IDH wt) was 530 mg/m^2/d. It also gave an MTD ([1]; single patient: High grade glioma, methylation profile pilocytic astrocytoma, BRAF (p.V600E)) of 280 mg/m^2/d, an MTD ([1]; single patient: High grade glioma, no molecular data, last dose level 280 mg/m^2/d) of 530 mg/m^2/d and an MTD ([1]; single patient: Medulloblastoma) of 580 mg/m^2/d. The MTD ([1]; single patient: SETTLE tumor) was 580 mg/m^2/d, the “Best ORR (CR + PR + SD)” value ([2]; Efficacy population (n = 27)) was 6 (22.2, 8.6–42.3) No. (%, 95% CI) and the “Best RR (CR + PR)” value ([2]; Efficacy population (n = 27)) was 4 (14.8, 4.2–33.7) No. (%, 95% CI). For the same compound, the “Median OS (95% CI)” value ([2]; Efficacy population (n = 27)) was 22.4 months and 22.4 (6.3 - --) months, the “Median PFS (95% CI)” value ([2]; Efficacy population (n = 27)) was 5.3 (4.6–5.9) months and the Median response duration ([2]; Efficacy population (n = 27)) was 19.1 months. For the same compound, the “best overall response rate (combining PR and SD, no CR observed)” value ([2]; Efficacy population (n = 27)) was 22%, the “Best ORR (CR + PR + SD)” value ([2]; Safety population (n = 50)) was 6 (12.0, 4.5–24.3) No. (%, 95% CI) and the “Best RR (CR + PR)” value ([2]; Safety population (n = 50)) was 4 (8.0, 2.2–19.2) No. (%, 95% CI). For the same compound, the “Median OS (95% CI)” value ([2]; Safety population (n = 50)) was 6.1 (4.0–10.4) months, the “Median PFS (95% CI)” value ([2]; Safety population (n = 50)) was 4.6 (3.7–5.3) months and the Median response duration ([2]; Safety population (n = 50)) was 19.1 months. The “patients with partial response (PR)” value ([2]; first response evaluation, after 3-month treatment at individual MTD, efficacy population) was 3/27, the OS [2, 4] was 750 (NC) Days and the PFS [2, 4] was 441 (NC) Days. The OS [2, 5] was 1352 (C) Days, the PFS [2, 5] was 385 (C) Days and the PFS ([2]; single patient: High grade glioma, no molecular data, last dose level 280 mg/m^2/d, (C) censored) was 499 (C) Days. For the same compound, the OS ([2]; single patient: High grade glioma, no molecular data, last dose level 280 mg/m^2/d, (NC) not censored) was 682 (NC) Days, the OS [2, 6] was 871 (C) Days and the PFS [2, 6] was 422 (C) Days. The OS [2, 7] was 1190 (C) Days and the PFS [2, 7] was 456 (C) Days.
